Results from US8791265B2, “Sulfonamido derivatives of 3,4-diarylpyrazoles as protein kinase inhibitors” (Nerviano Medical Sciences S.R.L., priority 2010, dated 2014).

Legend:
[1] = tested on: human melanoma cells A375 (with a mutated B-RAF); assay: In vitro cell proliferation assay, A375; type: cell-based; settings: A-375, 72 hours treatment, cell number by ATP monitoring
Method: (§1) Exponentially growing human melanoma cells A375 (with a mutated B-RAF) and human melanoma cells Mewo (with wild-type B-Raf) were seeded and incubated at 37° C. in a humidified 5% CO2 atmosphere. After 24 hours, scalar doses of the compound were added to the medium and cells oncubated for 72 hours. At the end of treatment, cells were washed and counted. Cell number was determined by a cellular adenosine triphosphate monitoring system. Cell proliferation was compared to control cells and the concentration inhibiting cell growth by 50% was calculated.

[2] = tested on: human melanoma cells Mewo (with wild-type B-Raf); assay: In vitro cell proliferation assay, Mewo; type: cell-based; settings: 72 hours treatment, cell number by ATP monitoring
Method: as §1

[3] = tested on: p-MAPK (T202/Y204) in A375 human melanoma cells, having a mutated B-RAF; assay: p-MAPK (T202/Y204) ArrayScan assay; type: cell-based; settings: A-375, 1.5 or 2 hours treatment, p-MAPK cytoplasmatic fluorescence intensity, read-out: Array Scan A375 IC50
Method: A375 human melanoma cells, having a mutated B-RAF, are seeded in 384-well poly-lysine coated plates (Matrix) at a density of 1000 cells/well with appropriate medium supplemented with 10% FCS and incubated for 16-24 hours. Cells are treated for 1.5 or 2 hours with increasing doses of compounds (starting dose 10 μM, dilution factor 2.5). At the end of the treatment cells are fixed with p-formaldehyde 3.7% for 15-30 min, then I/well) and permeabilized with D-PBS containing washed twice with D-PBS (80 0.1% Triton X-100 and 1% BSA (Sigma-Aldrich) for 15 minutes at room temperature (staining solution). Anti-phospho-MAPK (T202/Y204) monoclonal antibody E10 (Cell Signaling, cat. #9106) diluted 1:100 is added in staining solution and incubated for 1 hour at 37° C. After removal of the primary antibody solution, the anti-mouse Cy™2-conjugated (Green) secondary antibody (Amersham) diluted 1:500 in staining solution containing 2 μg/ml DAPI is added. The plate is incubated for 1 hour at 37° C., washed twice and then red with Cellomics' ArrayScan VTI (4 fields/well, CytoNucTrans algorithm).
The parameter “MEAN_RingAvgIntenCh2”, which measures the mean cytoplasmatic fluorescence intensity associated to p-MAPK staining, is reported as the final result.

[4] = Stability study in PBS buffer pH 7.4; type: physicochemical; settings: PBS pH 7.4, 37° C., 0-120 minutes, HPLC/MS; FIG. 1
Method: (§2) A compound of formula (I) of the present invention, dissolved in DMSO, was incubated at 37° C. in PBS at pH 7.4 or fresh mouse plasma. Aliquots were withdrawn and analysed by HPLC/MS at 0, 5, 15, 60 and 120 minutes. The UV signal in the range 210-400 nm was used for the quantification of the chromatographic peaks either of the compound of formula (I) and the parent compound of formula (II).

[5] = In vitro conversion of prodrug into parent compound in fresh mouse plasma; type: in vitro ADME; settings: 37° C., 0-120 minutes, HPLC/MS, FIG. 2
Method: as §2

Compound	IC50 [1]	IC50 [2]	IC50 [3]	stability in PBS buffer [4]	conversion into the parent compound in fresh mouse plasma [5]
CCn1cc(-c2ccnc(N)c2)c(-c2c(F)ccc(N(C(C)=O)S(=O)(=O)c3cc(F)ccc3F)c2F)n1 [Cmpd. No. 45, N-{3-[4-(2-aminopyridin-4-yl)-1-ethyl-1H-pyrazol-3-yl]-2,4-difluorophenyl}-N-[(2,5-difluorophenyl)sulfonyl]acetamide]	90 nM	> 10000 nM	50 nM		
CCn1cc(-c2ccncc2)c(-c2c(F)ccc(N(C(=O)OC)S(=O)(=O)c3cc(F)ccc3F)c2F)n1 [compound 1, methyl [(2,5-difluorophenyl)sulfonyl]{3-[1-ethyl-4-(pyridin-4-yl)-1H-pyrazol-3-yl]-2,4-difluorophenyl}carbamate]	20 nM	> 10000 nM	20 nM		
CCOC(=O)N(c1ccc(F)c(-c2nn(CC)cc2-c2ccncc2)c1F)S(=O)(=O)c1cc(F)ccc1F [Cmpd. No. 2, ethyl [(2,5-difluorophenyl)sulfonyl]{3-[1-ethyl-4-(pyridin-4-yl)-1H-pyrazol-3-yl]-2,4-difluorophenyl}carbamate]	370 nM	> 10000 nM	140 nM	stable in buffer	rapidly converted into the corresponding parent compound
CCn1cc(-c2ccncc2)c(-c2c(F)ccc(N(C(C)=O)S(=O)(=O)c3cc(F)ccc3F)c2F)n1 [compound 5, N-[(2,5-difluorophenyl)sulfonyl]-N-{3-[1-ethyl-4-(pyridin-4-yl)-1H-pyrazol-3-yl]-2,4-difluorophenyl}acetamide]	20 nM	> 10000 nM	20 nM		
CCOC(=O)N(c1ccc(F)c(-c2nn(C)cc2-c2ccncc2)c1F)S(=O)(=O)c1cc(F)ccc1F [compound 12, ethyl [(2,5-difluorophenyl)sulfonyl]{3-[1-methyl-4-(pyridin-4-yl)-1H-pyrazol-3-yl]-2,4-difluorophenyl}carbamate]	170 nM	> 10000 nM	20 nM		
CCn1cc(-c2ccncc2)c(-c2c(F)ccc(N(C(=O)OC(C)C)S(=O)(=O)c3cc(F)ccc3F)c2F)n1 [Cmpd. No. 4, propan-2-yl [(2,5-difluorophenyl)sulfonyl]{3-[1-ethyl-4-(pyridin-4-yl)-1H-pyrazol-3-yl]-2,4-difluorophenyl}carbamate]	20 nM	> 10000 nM	20 nM		
CCCOC(=O)N(c1ccc(F)c(-c2nn(CC)cc2-c2ccncc2)c1F)S(=O)(=O)c1cc(F)ccc1F [compound 3, propyl [(2,5-difluorophenyl)sulfonyl]{3-[1-ethyl-4-(pyridin-4-yl)-1H-pyrazol-3-yl]-2,4-difluorophenyl}carbamate]	20 nM	> 10000 nM	20 nM		
CCn1cc(-c2ccncc2)c(-c2c(F)ccc(N(COC(C)=O)S(=O)(=O)c3cc(F)ccc3F)c2F)n1 [compound 7, ([(2,5-difluorophenyl)sulfonyl]{3-[1-ethyl-4-(pyridin-4-yl)-1H-pyrazol-3-yl]-2,4-difluorophenyl}amino)methyl acetate]	20 nM	> 10000 nM	20 nM		
